pIC50: −log10 of the molar value. Values after ≈ are worked out from the molar mass of the structure shown. Active and inactive are the calls of the source.

One may read the pIC50 as the negative decadic logarithm of the IC50, by convention in mol/L. Broadly, the half-life is the time needed for the level to fall by half in the phase considered. As usually defined, the solubility is the dissolved amount per volume that the medium holds. Low values mean little dissolved substance, high ones much dissolved substance.

The target of data set [1] is T1, Human immunodeficiency virus type 1 integrase (Human immunodeficiency virus 1, UniProt Q7ZJM1). The experiment in a line: Inhibition of recombinant HIV1 integrase bound with donor DNA-SPA beads using [3H] target DNA as substrate assessed as strand transfer activity preincubated for 60 mins followed by substrate addition measured after 25 to 45 mins.
For data set [2], the target named is Human immunodeficiency virus type 1 reverse transcriptase (Human immunodeficiency virus 1) (UniProt Q72547). As to the kind of experiment: Inhibition of HIV1 reverse transcriptase DNA polymerase activity up to 10 uM.
For data set [3], the target named is Human immunodeficiency virus type 1 reverse transcriptase (Human immunodeficiency virus 1, UniProt Q72547). As to the kind of experiment: Inhibition of HIV1 reverse transcriptase RNase-H activity using dATP, dCTP, dTTP, [8-3H(N)]-dGTP, oligo1, oligo 2, oligo 3 as substrate preincubated for 30 mins followed by substrate addition measured after 90 mins.
Another data set deals with Rattus norvegicus. As to the kind of experiment: Dose normalized AUC in Sprague-Dawley (CD) rat at 1 mg/kg, iv. As to conditions: in vivo. In kind it is ADME, organism-based. Details: dose 1 mg/kg, route intravenous.
The target of data set [4] is T1, Human immunodeficiency virus type 1 integrase. As to the kind of experiment: Inhibition of HIV1 integrase strand transfer activity.
Data set [5] in a line: Half life in Sprague-Dawley (CD) rat at 1 mg/kg, iv and 5 mg/kg, po. In kind it is ADME, organism-based. The following applies: in vivo.
Data set [6] in a line: Permeability across MDCK cells. The data set is classed as ADME, cell-based, Canis lupus familiaris. As to conditions: dog, read-out: permeability.
The nature of data set [7]: Clearance in Sprague-Dawley (CD) rat at 1 mg/kg, iv relative to hepatic blood flow. In kind it is ADME, organism-based, Liver. On the set-up: dose 1 mg/kg, route intravenous. As to conditions: in vivo, read-out: CLH.
Data set [8] is described as follows: Solubility of the compound by chemiluminescent nitrogen detection method. The data set is classed as physicochemical.
Data set [9] concerns Human immunodeficiency virus. The experiment in a line: microbe, parasite or virus in culture. The following applies: Human immunodeficiency virus 1, HEK-293T, 48 h.
Description: Antiviral activity against Vesicular stomatitis virus G-pseudotyped HIV infected in human 293T cells transfected with pGJ3-Luci after 2 days by single round infectivity assay
Data set [10] concerns the target T1, Human immunodeficiency virus type 1 integrase. As to the kind of experiment: Inhibition of recombinant HIV1 N-terminal His6-tagged integrase expressed in Escherichia coli using 32P-labeled preprocessed HIV-1 U5 DNA as substrate assessed as strand transfer activity after 2 hrs by densitometric analysis.
Data set [11] in a line: Inhibition of HIV1 reverse transcriptase strand transfer activity.
Data set [12] has as its target T1, Human immunodeficiency virus type 1 integrase. As to the kind of experiment: Inhibition of HIV1 integrase bound with donor DNA-SPA beads using 3'-end fluorescein isothiocyanate labeled target DNA as substrate assessed as strand transfer activity incubated prior to substrate addition.

T1 sequence (Q7ZJM1 whole entry): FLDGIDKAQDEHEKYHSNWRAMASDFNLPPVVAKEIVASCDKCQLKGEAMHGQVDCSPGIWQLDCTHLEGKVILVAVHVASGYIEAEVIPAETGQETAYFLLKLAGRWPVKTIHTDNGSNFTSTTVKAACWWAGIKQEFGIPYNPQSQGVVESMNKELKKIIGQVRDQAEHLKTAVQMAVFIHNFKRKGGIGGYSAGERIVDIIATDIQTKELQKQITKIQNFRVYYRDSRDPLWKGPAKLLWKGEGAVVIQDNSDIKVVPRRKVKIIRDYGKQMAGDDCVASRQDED

For the compound `O=c1nc(NCc2ccc(-c3ccncc3)cc2)c2cccnc2n1O`, the negative logarithm of the IC50 (pIC50) in [1] is 5.90; in [3], 7.80. Also, the inhibition entry in data set [2] is “inactive”. In the data set with Rattus norvegicus, this compound gave an AUC/dose of 1000 ng·h/mL/mg.

On to `O=C1Cc2ccccc2C(=O)N1O`, for which the negative logarithm of the IC50 (pIC50) in data set [4] is less than 2.30.

The compound `O=c1nc(Nc2ccc(N3CCOCC3)cc2)c2cccnc2n1O` gave a half-life in data set [5] of 2.4 h. In [6], the Papp is 0.7 ×10⁻⁶ cm/s. Besides, the clearance in data set [7] was found to be 45 mL/min/kg. For the same compound, the pIC50 is 6.30 in [1], 6.60 in [9] and 7.30 in data set [3]. Further, the solubility in data set [8] is 161 µM (≈ 54.6 µg/mL). Also, the inhibition entry in data set [2] was “inactive”. The compound also came in with an AUC/dose in the data set with Rattus norvegicus of 314 ng·h/mL/mg.

In turn, `O=c1nc(Nc2ccc(CN3CCOCC3)cc2)c2cccnc2n1O` had a half-life in data set [5] of 0.4 h. For the same compound, in data set [6], the Papp came out at 0.5 ×10⁻⁶ cm/s. The clearance in data set [7] was determined as 70 mL/min/kg. In addition, the pIC50 was 5.89 in data set [1], 6.80 in [9] and 6.70 in data set [3]. The same compound yielded a solubility in data set [8] of 503 µM (≈ 178 µg/mL). In [2], the inhibition entry is “inactive”. Further, in the data set with Rattus norvegicus, the AUC/dose was 226 ng·h/mL/mg.

`O=c1nc(Nc2ccc(-c3ccccc3)cc2)c2cccnc2n1O`: the pIC50 in [1] was 6.10. In addition, the inhibition entry in [2] is “inactive”. The AUC/dose in the data set on Rattus norvegicus was determined as 2934 ng·h/mL/mg.

Consider `O=c1nc(N2CCC(F)(F)CC2)c2cccnc2n1O`, for which the pIC50 in data set [1] was 5.10; in data set [3], 6.30. Besides, the inhibition result in data set [2] is “inactive”.

For `O=c1nc(NCc2ccc(-c3ccccc3)cc2)c2cccnc2n1O`, the pIC50 in data set [1] was 6.20; in data set [3], 8.00. In addition, the inhibition entry in data set [2] is “inactive”.

In the case of `O=C(NCc1ccc(Cl)cc1)c1ncc2cccnc2c1O`, the negative logarithm of the IC50 (pIC50) in [10] is 4.70; in data set [11] it was 6.87.

Consider `O=c1nc(NCc2ccc(N3CCOCC3)cc2)c2cccnc2n1O`, for which the half-life in data set [5] was 4.5 h. Also, in data set [6], the Papp worked out at 1.4 ×10⁻⁶ cm/s. Also, the clearance in [7] came to 55 mL/min/kg. The values for the pIC50 in data set [1], in data set [9] and in data set [3] were 5.80, 6.33 and 7.00, respectively. This compound also displayed a solubility in data set [8] of 293 µM (≈ 104 µg/mL). Further, the inhibition entry in data set [2] is “inactive”. Further, in the data set on Rattus norvegicus, the AUC/dose turned out to be 713 ng·h/mL/mg.

As for `O=c1nc(NCc2cccc(CN3CCOCC3)c2)c2cccnc2n1O`, the negative-log IC50 (pIC50) was 4.80 in data set [1], 6.52 in [9] and 6.40 in data set [3]. For the same compound, in [2], the inhibition entry is “inactive”.

As to `O=C(NCc1ccc(F)cc1)c1nc(N2CCCCS2(=O)=O)c2cccnc2c1O`, the negative-log IC50 (pIC50) in [12] is 5.00.

Consider `O=c1nc(NCc2cccc(N3CCOCC3)c2)c2cccnc2n1O`, for which the negative-log IC50 (pIC50) is 5.70 in data set [1], 6.42 in data set [9] and 6.70 in [3]. In addition, the inhibition entry in data set [2] is “inactive”.

As to `O=c1nc(NCc2ccc(F)cc2)c2cccnc2n1O`, the pIC50 is 5.50 in data set [1] and 6.80 in [3]. For the same compound, the inhibition entry in data set [2] is “inactive”.

On to `O=c1nc(Nc2ccc(-c3ccncc3)cc2)c2cccnc2n1O`, for which the values for the pIC50 in [1] and in [3] were 5.70 and 7.10, respectively. Further, the inhibition entry in [2] is “inactive”. In addition, in the data set with Rattus norvegicus, the AUC/dose amounted to 1942 ng·h/mL/mg.

As for `O=c1nc(NCC2CC2)c2cccnc2n1O`, the pIC50 in data set [1] was 5.41; in [9], 6.15; in [3], 6.40.

Source of the values: ChEMBL document CHEMBL3286181, “Pyridopyrimidinone inhibitors of HIV-1 RNase H” (Eur J Med Chem, 2014).
